{"source": "patent US20220411414A1", "about": "“INHIBITORS FOR THE B-CATENIN/B-CELL LYMPHOMA 9 (BCL9) PROTEIN-PROTEIN INTERACTION” (H. LEE MOFFITT CANCER CENTER AND RESEARCH INSTITUTE, INC., priority 2018, published 2022)", "key": {"β-catenin/E-cadherin": {"target": "T1, β-catenin/E-cadherin (Homo sapiens, UniProt P35222)", "T1 construct": "Full-length β-catenin and (residues 1-781) were cloned into a pET-28b vector carrying a C-terminal 6× histidine; made in house; host or cells: E. coli BL21 DE3", "T1 sequence (P35222 1-781)": "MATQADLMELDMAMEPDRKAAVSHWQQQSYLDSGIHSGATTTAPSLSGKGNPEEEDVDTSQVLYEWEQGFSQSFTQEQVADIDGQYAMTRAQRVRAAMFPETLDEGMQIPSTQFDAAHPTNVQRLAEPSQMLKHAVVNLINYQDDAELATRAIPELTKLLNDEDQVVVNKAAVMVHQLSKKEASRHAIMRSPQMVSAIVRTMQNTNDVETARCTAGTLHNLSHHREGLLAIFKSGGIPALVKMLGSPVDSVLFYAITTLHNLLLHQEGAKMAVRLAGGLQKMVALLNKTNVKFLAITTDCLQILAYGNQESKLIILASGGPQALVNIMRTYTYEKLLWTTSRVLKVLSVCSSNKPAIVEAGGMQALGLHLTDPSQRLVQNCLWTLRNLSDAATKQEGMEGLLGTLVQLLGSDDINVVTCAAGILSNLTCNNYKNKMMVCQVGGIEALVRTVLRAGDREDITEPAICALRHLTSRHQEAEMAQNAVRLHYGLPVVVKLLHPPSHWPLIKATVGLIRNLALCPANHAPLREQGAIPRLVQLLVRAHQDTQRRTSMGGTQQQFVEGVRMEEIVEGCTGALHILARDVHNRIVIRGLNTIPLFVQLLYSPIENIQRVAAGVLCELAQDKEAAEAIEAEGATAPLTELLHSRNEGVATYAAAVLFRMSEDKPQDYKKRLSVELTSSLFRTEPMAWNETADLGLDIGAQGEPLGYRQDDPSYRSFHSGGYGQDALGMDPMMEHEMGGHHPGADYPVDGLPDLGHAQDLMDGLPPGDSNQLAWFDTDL", "test": "AlphaScreen selectivity assay, β-catenin/E-cadherin PPI", "assay_type": "binding", "settings": "Table 2, read-out: Ki ± SD β-catenin/E-cadherin", "source_text": "Compounds 4 and 5 were further evaluated with their selectivities for the disruption of β-catenin/BCL9 over β-catenin/E-cadherin interactions using the AlphaScreen selectivity assay (Zhang, M.; Wisniewski, J. A.; Ji, H AlphaScreen selectivity assay for, β-catenin/B-cell lymphoma 9 inhibitors. Anal. Biochen. 2015, 469, 43-53.).\nBCL9 peptide synthesis and purification. Human BCL9 (residues 350-375), N-terminally biotinylated human BCL9 (residues 350-375), human E-cadherin (residues 824-877), and N-terminally biotinylated human E-cadherin (residues 824-877) were synthesized by InnoPep Inc. (San Diego, Calif., www.innopep.com). All synthesized peptides were purified by HPLC with purity >95%. […]\nFor the β-catenin/BCL9 assay, 5 nM of biotinylated BCL9 and 40 nM of His6-tagged β-catenin were incubated in assay buffer at 4° C. for 30 min. […] The IC50 value was determined by nonlinear least-square analysis of GraphPad Prism 5.0. The inhibition constant (Ki) values were derived from the IC50 values using a method reported by Nikolovska-Coleska et al (Nikolovska-Coleska, Z.; Wang, R.; Fang, X.; Pan, H.; Tomita, Y.; Li, P.; Roller, P. P.; Krajewski, K.; Saito, N. G.; Stuckey, J. A.; Wang, S. Development and optimization of a binding assay for the XIAP BIR3 domain using fluorescence polarization, Anal. Biochem. 2004, 332, 261-273.). […] The results were expressed as mean±standard deviation. […]"}, "HCT116": {"tested_on": "HCT116", "test": "MTs growth inhibition assay, HCT116", "assay_type": "cell-based", "settings": "Homo sapiens, HCT-116; Wnt/β-catenin-hyperactive, 72 h; read-out: MTs IC50 ± SD HCT116", "method": "(§1) MTs cancer cell growth inhibition assays were conducted for 4 and 5. Three cancer cell lines with hyperactive Wnt/β-catenin signaling, SW480, HCT116, and MDA-MB-231. MTs cell viability assay. Colorectal cancer cell lines, SW480 and HCT116, and triple-negative breast cancer cell line MDA-MB-231 were seeded in 96-well plates at 4×10^3 cells/well, maintained overnight at 37° C., and incubated in the presence of 4 and 5 at various concentrations. Cell viability was monitored after 72 h using a freshly prepared mixture of 1 part phenazine methosulfate (PMS, Sigma) solution (0.92 mg/mL) and 19 parts 3-(4,5-dimethylthiazol-2-yl)-5-(3-carboxymethoxyphenyl)-2-(4-sulfophenyl)-2H-tetrazolium (MTs, Promega) solution (2 mg/mL). Cells were incubated in 10 μL of this solution at 37° C. for 3 h, and A490 was measured. The effect of each compound is expressed as the concentration required to reduce A490 by 50% (IC50) relative to vehicle-treated cells. Experiments were performed in triplicate."}, "MDA-MB-231": {"tested_on": "MDA-MB-231", "test": "MTs growth inhibition assay, MDA-MB-231", "assay_type": "cell-based", "settings": "Homo sapiens, Wnt/β-catenin-hyperactive, 72 h, read-out: MTs IC50 ± SD MDA-MB-231", "method": "as §1"}, "[1]": {"tested_on": "FOPFlash (three mutant Tcf4 binding sites) luciferase reporter", "test": "FOPFlash luciferase reporter assay", "assay_type": "cell-based", "settings": "FIG. 1", "method": "Cell transfection and luciferase assay. FuGENE6 (E269A, Promega) 96 well plate format was used for the transfection of HEK293 and SW480 cells according to the manufacturer's instruction. HEK293 cells were co-transfected with 45 ng of TOPFlash or FOPFlash reporter gene, 135 ng pcDNA3.1-β-catenin, and 20 ng of pCMV-RL normalization reporter gene. SW480 cells were co-transfected with 60 ng of the TOPFlash or FOPFlash reporter gene and 40 ng of pCMV-RL normalization reporter. Cells were cultured in DMEM and 10% FBS at 37° C. for 24 h, and different concentrations of inhibitors or DMSO was added. After 24 h, the luciferase reporter activity was measured using the Dual-Glo system (E2940, Promega). Normalized luciferase activity in response to the treatment with 4 and 5 was compared with that obtained from the cells treated with DMSO. Experiments were performed in triplicate."}}, "data": [{"smiles": "Cl.Cl.O=C(Nc1ccc(O[C@@H]2CCNC2)c(-c2cccc(-c3nn[nH]n3)c2)c1)c1ccc(O[C@H]2CCNC2)c(-c2ccc(F)c(F)c2)c1", "note": "[Compound 4, 3′,4′-difluoro-6-(((S)-pyrrolidin-3-yl)oxy)-N-(6-(((R)-pyrrolidin-3-yl)oxy)-3′-(2H-tetrazol-5-yl)-[1,1′-biphenyl]-3-yl)-[1,1′-biphenyl]-3-carboxamide dihydrochloride]", "values": [{"measurement": "Ki", "setting": "β-catenin/E-cadherin", "result": "> 915", "unit": "µM"}, {"measurement": "IC50", "setting": "HCT116", "result": "55 ± 7.4", "unit": "µM"}, {"measurement": "IC50", "setting": "MDA-MB-231", "result": "73 ± 8.9", "unit": "µM"}, {"measurement": "FOPFlash luciferase activity", "setting": "[1]", "result": "did not inhibit"}]}]}
